Data reported in US10085449B2, “N-[1-((6-chloropyridin-3-yl)methyl)pyridin-2(1H)-ylidene]-2,2,2- trifluoroacetamide for control of agricultural/horticultural pests” (priority 2010, dated 2018).
Where two headings read alike, the source gives them in different places.

Assays:
Experiment in all cases: whole plant or invertebrate
Type in all cases: in vivo
small brown planthopper [1] = details: Laodelphax striatellus, 72 h; for pest or weed control at 0.05 mg/pot: 0.05 mg/pot (Table 13); for pest or weed control at 0.01 mg/pot: 0.01 mg/pot (Table 13)
Method: (§1) Rice seedlings grown in pots were subjected to soil drenching treatment with solutions of the inventive compounds at a predetermined concentration prepared to 10% acetone/water. Three days following treatment, ten second-instar small brown planthopper larvae were released onto each seedling. The treated seedlings and larvae were then held in an incubation chamber at 25° C. (16-hour period of light, 8-hour dark period). Three days after released, the numbers of live and dead insects were counted, and the mortality was calculated from the following formula. The test was carried out as two replications. Mortality (%)=[number of dead insects/(number of live insects+number of dead insects)]×100

diamondback moth = details: Plutella xylostella, foliar
Method: (§2) Leaf discs 5.0 cm in diameter were cut from cabbage plants grown in pots, and these were sprayed with solutions of the inventive compounds at a predetermined concentration prepared to 50% acetone/water (containing 0.05% Tween 20). The treated leaf discs were air dried, following which second-instar larvae were released onto the discs. The leaf discs and larvae were then held in an incubation chamber at 25° C. (16-hour period of light, 8-hour dark period). Three days after released, the numbers of live and dead insects were counted, and the mortality was calculated from the following formula. This was a two-replication test. Mortality (%)=[number of dead insects/(number of live insects+number of dead insects)]×100

small brown planthopper [2] = details: Laodelphax striatellus, in Triticum aestivum, 96 h
Method: as §1, with “Wheat seedling roots 48 hours after sowing” for “Rice seedlings grown in pots”, “treated” for “subjected to soil drenching treatment”, “After allowing the roots to absorb the chemical for 72 hours,” for “Three days following treatment,”, “Four” for “Three”

cotton aphid = details: Aphis gossypii, foliar
Method: as §2, with “2.0” for “5.0”, “cucumber” for “cabbage”, “first-instar” for “second-instar”

common cutworm = details: foliar application, 500 ppm
Method: as §2, with “third-instar” for “second-instar”

western flower thrips = details: Frankliniella occidentalis, foliar
Method: as §2, with “2.8” for “5.0”, “bean” for “cabbage”, “first-instar” for “second-instar”

[3] = rice soil drenching, read-out: Small brown planthopper (rice soil drenching), effect
[4] = read-out: Insecticidal effects (mortality), diamondback moth second-instar larvae
[5] = read-out: Insecticidal effects (mortality), western flower thrips first-instar larvae
[6] = read-out: Insecticidal effects (mortality), small brown planthopper second-instar larvae
[7] = read-out: Insecticidal effects (mortality), cotton aphid first-instar larvae
[8] = soil, read-out: Insecticidal effects (mortality), small brown planthopper second-instar larvae

N#CN=c1ccccn1Cc1ccc(Cl)nc1 [Comparative Example 2, N-[1-((6-chloropyridin-3-yl)methyl)pyridin-2(1H)-ylidene]cyanamide, reference compound]
20%: pest or weed control at 0.05 mg/pot (small brown planthopper [1]; [3])

O=C(N=c1ccccn1Cc1ccc(Cl)nc1)C(Cl)(Cl)Cl [Compound 235, 2,2,2-trichloro-N-[1-((6-chloropyridin-3-yl)methyl)pyridin-2(1H)-ylidene]acetamide]
≥ 80%: mortality at 100 ppm (diamondback moth; in Brassica oleracea, 72 h) | mortality at 500 ppm (diamondback moth; in Brassica oleracea, 72 h) | mortality at 20 µg/seedling (small brown planthopper [2]) | mortality at 20 ppm (cotton aphid; in Cucumis sativus, 72 h) | mortality at 100 ppm (cotton aphid; in Cucumis sativus, 72 h) | mortality at 500 ppm (cotton aphid; in Cucumis sativus, 72 h)

O=C(/N=C1\SCCN1Cc1ccc(Cl)nc1)C(F)(F)F [Comparative Example 8, N-[3-((6-chloropyridin-3-yl)methyl)thiazolidin-2-ylidene]-2,2,2-trifluoroacetamide, reference compound]
20%: pest or weed control at 0.05 mg/pot (small brown planthopper [1]; [3])

N#CNCc1ccc(Cl)nc1 [Compound 1 in Patent Document 1, N-[(6-chloropyridin-3-yl)methyl]cyanamide, reference compound]
65%: mortality at 500 ppm (cotton aphid; in Cucumis sativus, 72 h)

O=C(N=c1ccccn1Cc1ccc(Cl)nc1)C(Br)Br [Compound 241, 2,2-dibromo-N-[1-((6-chloropyridin-3-yl)methyl)pyridin-2(1H)-ylidene]-acetamide]
≥ 80%: mortality at 500 ppm (diamondback moth; in Brassica oleracea, 72 h) | mortality at 20 µg/seedling (small brown planthopper [2]) | mortality at 20 ppm (cotton aphid; in Cucumis sativus, 72 h) | mortality at 100 ppm (cotton aphid; in Cucumis sativus, 72 h)

CC(c1ccc(Cl)nc1)n1ccccc1=NC(=O)C(F)(F)F (centres unmarked) [Compound 237, N-[1-(1-(6-chloropyridin-3-yl)ethyl)pyridin-2(1H)-ylidene]-2,2,2-trifluoroacetamide]
≥ 80%: mortality at 100 ppm (diamondback moth; in Brassica oleracea, 72 h) | mortality at 500 ppm (diamondback moth; in Brassica oleracea, 72 h) | mortality at 500 ppm (western flower thrips; 72 h) | mortality at 20 µg/seedling (small brown planthopper [2]) | mortality at 20 ppm (cotton aphid; in Cucumis sativus, 72 h) | mortality at 100 ppm (cotton aphid; in Cucumis sativus, 72 h) | mortality at 500 ppm (cotton aphid; in Cucumis sativus, 72 h) | mortality at 0.05 mg/seedling (small brown planthopper [1]; soil)
90%: mortality at 500 ppm (western flower thrips; [5])
85%: mortality at 20 ppm (cotton aphid; [7])
33: Insecticidal effects (mortality), common cutworm third-instar larvae (common cutworm)
75%: pest or weed control at 0.01 mg/pot (small brown planthopper [1]; [3]) | mortality at 0.01 mg/pot (small brown planthopper [1]; [8])
50%: mortality at 0.5 mg/seedling (small brown planthopper [2]; [6])
100%: mortality at 20 ppm (diamondback moth; [4]) | mortality at 100 ppm (diamondback moth; [4]) | mortality at 500 ppm (diamondback moth; [4]) | mortality at 2 mg/seedling (small brown planthopper [2]; [6]) | mortality at 20 mg/seedling (small brown planthopper [2]; [6]) | mortality at 100 ppm (cotton aphid; [7]) | mortality at 500 ppm (cotton aphid; [7]) | pest or weed control at 0.05 mg/pot (small brown planthopper [1]; [3]) | mortality at 0.05 mg/pot (small brown planthopper [1]; [8])

O=C(N=c1ccccn1Cc1ccc(Cl)nc1)C(F)F [Compound 238, N-[1-((6-chloropyridin-3-yl)methyl)pyridin-2(1H)-ylidene]-2,2-difluoroacetamide]
100%: mortality at 100 ppm (diamondback moth; [4]) | mortality at 0.25 mg/seedling (small brown planthopper [2]; [6]) | mortality at 0.5 mg/seedling (small brown planthopper [2]; [6]) | mortality at 2 mg/seedling (small brown planthopper [2]; [6]) | mortality at 20 mg/seedling (small brown planthopper [2]; [6]) | mortality at 1.25 ppm (cotton aphid; [7]) | mortality at 5 ppm (cotton aphid; [7]) | mortality at 20 ppm (cotton aphid; [7]) | mortality at 100 ppm (cotton aphid; [7]) | pest or weed control at 0.01 mg/pot (small brown planthopper [1]; [3]) | pest or weed control at 0.05 mg/pot (small brown planthopper [1]; [3]) | mortality at 0.01 mg/pot (small brown planthopper [1]; [8]) | mortality at 0.05 mg/pot (small brown planthopper [1]; [8])
60%: mortality at 20 ppm (diamondback moth; [4])
≥ 80%: mortality at 100 ppm (diamondback moth; in Brassica oleracea, 72 h) | mortality at 100 ppm (western flower thrips; 72 h) | mortality at 20 µg/seedling (small brown planthopper [2]) | mortality at 20 ppm (cotton aphid; in Cucumis sativus, 72 h) | mortality at 100 ppm (cotton aphid; in Cucumis sativus, 72 h) | mortality at 0.05 mg/seedling (small brown planthopper [1]; soil)
33%: pest or weed control at 0.005 mg/pot (small brown planthopper [1]; rice soil drenching, 0.005 mg/pot (Table 13), read-out: Small brown planthopper (rice soil drenching), effect) | mortality at 0.005 mg/pot (small brown planthopper [1]; [8])
95%: mortality at 100 ppm (western flower thrips; [5])
25%: mortality at 0.063 mg/seedling (small brown planthopper [2]; [6])
0: Insecticidal effects (mortality), common cutworm third-instar larvae (common cutworm)

CC(=O)/N=c1\ccccn1Cc1ccc(Cl)nc1 [Comparative Example 3, N-[1-((6-chloropyridin-3-yl)methyl)pyridin-2(2H)-ylidene]acetamide, reference compound]
10%: pest or weed control at 0.05 mg/pot (small brown planthopper [1]; [3])
